Test results: ChEMBL document CHEMBL4616641, “4-Hydroxy-3-methylbenzofuran-2-carbohydrazones as novel LSD1 inhibitors” (Bioorg Med Chem Lett, 2020)
pIC50: −log10 of the molar value.

Tests used:
PC-3 = test: Antiproliferative activity against human PC3 cells assessed as inhibition of cell growth
MGC-803 = test: Antiproliferative activity against human MGC803 cells assessed as inhibition of cell growth by MTT assay
PANC-1 = test: Antiproliferative activity against human PANC1 cells assessed as inhibition of cell growth
MCF7 = test: Antiproliferative activity against human MCF7 cells assessed as inhibition of cell growth
U-87 MG = test: Antiproliferative activity against human U87MG cells assessed as inhibition of cell growth
HT-29 = test: Antiproliferative activity against human HT-29 cells assessed as inhibition of cell growth

| SMILES | pIC50 (PC-3) | pIC50 (MGC-803) | further results |
| --- | --- | --- | --- |
| Cc1c(C(=O)N/N=C\c2ccccc2)oc2cccc(O)c12 | 4.54 |  |  |
| Cc1c(C(=O)N/N=C\c2ccccn2)oc2cccc(O)c12 | ≤ 4.40 |  |  |
| Cc1c(C(=O)N/N=C\c2cccc(O)c2O)oc2cccc(O)c12 | 4.92 | 5.30 |  |
| Cc1c(C(=O)N/N=C\c2cccc(O)c2)oc2cccc(O)c12 | 4.75 |  |  |
| Cc1c(C(=O)N/N=C\c2cccc(F)c2O)oc2cccc(O)c12 | 4.90 | 5.08 |  |
| Cc1c(C(=O)N/N=C\c2cccc(F)c2)oc2cccc(O)c12 | ≤ 4.40 |  |  |
| Cc1c(C(=O)N/N=C\c2cccc(Br)c2O)oc2cccc(O)c12 | 4.78 | 4.85 |  |
| Cc1c(C(=O)N/N=C\c2ccc(O)c(O)c2O)oc2cccc(O)c12 | ≤ 4.40 | 4.74 | pIC50 (PANC-1): < 4.70; pIC50 (MCF7): 4.77; pIC50 (U-87 MG): 5.22; pIC50 (HT-29): < 4.70 |
| Cc1c(C(=O)N/N=C\c2cccnc2)oc2cccc(O)c12 | ≤ 4.40 |  |  |
| Cc1c(C(=O)N/N=C\c2ccccc2O)oc2cccc(O)c12 | 5.08 | 4.97 |  |
| Cc1c(C(=O)N/N=C\c2ccccc2F)oc2cccc(O)c12 | ≤ 4.40 |  |  |
| COc1cccc(/C=N\NC(=O)c2oc3cccc(O)c3c2C)c1 | ≤ 4.40 |  |  |
| Cc1c(C(=O)N/N=C\c2ccc(O)cc2)oc2cccc(O)c12 | 4.66 |  |  |
| Cc1c(C(=O)N/N=C\c2c(O)cccc2Cl)oc2cccc(O)c12 | 4.73 |  |  |
| Cc1c(C(=O)N/N=C\c2cc(O)ccc2O)oc2cccc(O)c12 | 4.02 |  |  |
| Cc1c(C(=O)N/N=C\c2ccc(C(F)(F)F)cc2)oc2cccc(O)c12 | ≤ 4.40 |  |  |

More lines, main results first:

| pIC50 (PC-3) | pIC50 (MGC-803) | SMILES | further results |
| --- | --- | --- | --- |
| ≤ 4.40 |  | Cc1c(C(=O)N/N=C\c2ccncc2)oc2cccc(O)c12 |  |
| 5.02 | 5.36 | Cc1c(C(=O)N/N=C\c2cc(Cl)cc(Cl)c2O)oc2cccc(O)c12 |  |
| 4.83 | 5.13 | Cc1c(C(=O)N/N=C\c2ccc(O)cc2O)oc2cccc(O)c12 | pIC50 (PANC-1): 5.01; pIC50 (MCF7): 5.68; pIC50 (U-87 MG): 5.36; pIC50 (HT-29): 5.54 |
| ≤ 4.40 |  | Cc1c(C(=O)N/N=C\c2ccc(F)cc2)oc2cccc(O)c12 |  |
| 4.65 |  | Cc1c(C(=O)N/N=C\c2cccs2)oc2cccc(O)c12 |  |
| ≤ 4.40 |  | Cc1c(C(=O)N/N=C\c2ccco2)oc2cccc(O)c12 |  |
| 5.50 | 5.28 | Cc1c(C(=O)N/N=C\c2cc(F)ccc2O)oc2cccc(O)c12 |  |
| 5.69 | 5.26 | Cc1c(C(=O)N/N=C\c2ccc(Br)cc2O)oc2cccc(O)c12 |  |
| 4.48 |  | COc1ccccc1/C=N\NC(=O)c1oc2cccc(O)c2c1C |  |
| 5.51 | 5.38 | Cc1c(C(=O)N/N=C\c2cc(Cl)ccc2O)oc2cccc(O)c12 |  |
| 5.13 | 5.22 | Cc1ccc(O)c(/C=N\NC(=O)c2oc3cccc(O)c3c2C)c1 |  |
| 4.58 |  | Cc1c(C(=O)N/N=C\c2ccccc2C(F)(F)F)oc2cccc(O)c12 |  |
| 5.09 | 4.96 | Cc1c(C(=O)N/N=C\c2c(O)cccc2F)oc2cccc(O)c12 | pIC50 (PANC-1): 5.08; pIC50 (MCF7): 5.76; pIC50 (U-87 MG): 5.03; pIC50 (HT-29): 5.66 |
| 4.77 |  | Cc1c(C(=O)N/N=C\c2cc([N+](=O)[O-])ccc2O)oc2cccc(O)c12 |  |
